# Key:
# [1] = system: human HCC cell line HepG2; test: cells; format: cell-based; details: Homo sapiens, HepG2, 72 h, 72 h, neutral red; Supplementary Table 2; read-out: Anticancer (HepG2) IC50
# Protocol: The safe compounds on RBCs (5a-g, 5i-l, 5p-r, 5v-w, 6b-g) were screened for their potential anticancer activity against human HCC cell line HepG2. HepG2 cells were exposed to the test compounds, then viability of cells was measured using neutral red uptake assay as described by Borenfreund and Puerner. This assay depends on the fact that neutral red dye can be incorporated into the lysosomes of living cells providing a quantitative assay to the cytotoxic effects. The results were interpreted to calculate both the concentration causing 50% cancer cell death (IC50) of each compound and the maximum safe concentration that cause 100% viability (LD0; to be used in the in vitro anti-HCV testing) using GraphPad InStat 3.0 software (Figure 5 & Supplementary Table 2).
# HepG2 cells were routinely maintained as adherent cell cultures in RPMI-1640 medium (Lonza Group Ltd, Basel, Switzerland) supplemented with 10% fetal bovine serum (FBS; Lonza, IL, USA) at 37°C in a humidified air incubator containing 5% CO2. Cells were subcultured for 2 weeks before assay. Cell viability was assessed using trypan blue exclusion method.
# HepG2 cells were washed twice in RPMI-1640 medium supplemented with 200 μM L-glutamine (Lonza) and […] 4-(2-hydroxyethyl)-1-piperazineethanesulfonic acid (HEPES) buffer (Lonza). The cells were suspended at 3 × 10^4 cells/ml in RPMI culture medium (RPMI supplemented medium and 10% FBS). The appropriate number of cells was chosen to be 3 × 10^3 cells/well (100 μl of the prepared suspension), and the cells were left to adhere on the polystyrene 96-well plates in an incubator at 37°C, 5% CO2 and 95% humidity for 24 h. The cells were washed once using RPMI supplemented medium.
# A 2 mg/ml stock solution of each compound was prepared in DMF and filtered using a 0.2 μM syringe filter. The desired concentrations (20, 10, 5, 2.5 and 1.25 μg/ml) were prepared using serial dilution in a 96-well plate. Compound wells were prepared by adding 100 μl of the previously prepared concentrations to a 100 μl of HepG2 cells suspension. Parallel concentrations of the solvent were prepared to be used as controls. 5-Fluorouracil was used as a positive control. Control wells were prepared by adding 100 μl culture media to a 100 μl of HepG2 cells suspension. Blank wells contained 200 μl of culture media only (without cells or compound solution). Each set of samples was pipetted in duplicate. The plate was gently shaken, then incubated at 37°C, 5% CO2 for 72 h.
# After incubation, the plate was centrifuged (2000 r.p.m. for 10 min). The media were discarded by inversion over paper towels. A working solution (100 μg/ml) of neutral red stain (Bio Basic Inc, Markham, Canada) was prepared, and 100 μl of this solution was added to each well, then the plate was gently shaken. The plate was incubated at 37°C in humidified 5% CO2 for 3 h, and then centrifuged (2000 r.p.m. for 10 min). Excess dyes were discarded, and the cells were fixed with 100 μl fixing solution (0.5% formalin with 1% calcium chloride [Sigma-Aldrich]) for 1 min. Cells were destained in 100 μl destaining solution (50% ethanol with 1% glacial acetic acid [Sigma-Aldrich]) for 5 min by shaking. The stain intensity was assayed using automated microplate reader spectrophotometer adjusted at 490 nm. Surviving cell fraction was calculated according to the following equation: [drawing 3]
# The results were interpreted to calculate both the concentration causing 50% cancer cell death (IC50) of each compound and the maximum safe concentration that cause 100% viability (LD0; to be used in the in vitro anti-HCV testing) using GraphPad InStat 3.0 software.
# [2] = Solubility in DMF or DMSO under experimental conditions; format: physicochemical
# [3] = In vitro hemolytic assay; format: cell-based; details: 2% erythrocyte suspension (washed red blood cells); 2% erythrocyte suspension, 3 μl of 1 mg/ml compound in DMF per 240 μl well, 37°C 30 min, absorbance 405 nm; <5% considered nontoxic
# Protocol: (§1) Compounds 5a-x and 6a-h were subjected to the in vitro hemolytic assay to identify those which cause hemolysis to red blood cells (RBCs). Consequently, these compounds would be toxic in vivo so they were excluded from further biological screening.
# (§2) Blood samples (5 ml) were freshly collected into heparinized tubes and were centrifuged (1000 r.p.m. for 20 min) at room temperature. The plasma and buffy coat were removed by Pasteur pipette, and the collected erythrocytes were washed three-times using isotonic buffer solution (0.9% sodium chloride [Sigma-Aldrich, MO, USA]) by centrifugation (2500 r.p.m. for 10 min). A two percent erythrocyte suspension was prepared to be used in the assay.
# (§3) A 1 mg/ml stock solution of each compound was prepared in DMF (Sigma-Aldrich). Compound wells were prepared by adding 3 μl of the compound solution to 117 μl isotonic buffer solution and 120 μl erythrocyte suspension. Compounds color blank wells were prepared by adding 3 μl compound to 237 μl isotonic buffer solution. Solvent (DMF) wells were prepared by adding 3 μl DMF to 117 μl isotonic buffer solution and 120 μl erythrocyte suspension. Positive control wells (representing 100% hemolysis) were prepared by adding 120 μl erythrocyte suspension to 120 μl distilled water, while negative control wells (representing 0% hemolysis) were prepared by adding 120 μl erythrocyte suspension to 120 μl isotonic buffer solution. Finally, blank wells contained only 240 μl isotonic buffer solution. Each set of samples was pipetted in triplicate. The microtiter plate was then shaken well on bench, incubated at 37°C for 30 min then centrifuged (2000 rpm for 5 min) at room temperature.
# (§4) A fraction of the supernatant layer (150 μl) of each well was transferred to another 96-well microtiter plate. Erythrocyte hemolysis was determined by reading the absorbance (A) of liberated hemoglobin at 405 nm in the supernatant fraction compared with the 100% hemolysis of erythrocyte. The average value was calculated from triplicate assay: [drawing 2]
# [4] = system: red blood cells (RBCs); test: In vitro hemolytic assay; format: cell-based; details: <5% hemolysis nontoxic, 5% or more toxic and hemolytic
# Protocol: as §1, §2, §3, §4
melting point [°C],solubility in DMF or DMSO [2],SMILES,"hemolysis at 30 min, 12.5 µg/ml [3] [%]",further results
,,"O=c1[nH]cc(F)c(=O)[nH]1 [Compound 5-FU, 5-Fluorouracil, reference compound]",,IC50 [1]: 0.9 µg/mL
280 to 282,could not be dissolved,"COc1ccc(N2C(=O)C(=Cc3cn(-c4ccccc4)nc3-c3ccc(Cl)cc3)SC2=NN=C(C)c2cc3ccccc3o2)cc1 [Compound 5h, 2-[1-(Benzofuran-2-yl)ethylidenehydrazono]-5-{[3-(4-chlorophenyl)-1-phenyl-1H-pyrazol-4-yl]methylene}-3-(4-methoxyphenyl)thiazolidin-4-one]",,
> 300,,"CC(=NN=C1SC(=Cc2cn(-c3ccccc3)nc2-c2ccccc2)C(=O)N1c1ccccc1)c1nc2ccccc2[nH]1 [Compound 5m, 2-[1-(1H-Benzimidazole-2-yl)ethylidenehydrazono]-5-[(1,3-Diphenyl-1H-pyrazol-4-yl)methylene]-3-phenylthiazolidin-4-one]",11.7,
> 300,,"CC(=NN=C1SC(=Cc2cn(-c3ccccc3)nc2-c2ccc(Cl)cc2)C(=O)N1c1ccccc1)c1nc2ccccc2[nH]1 [Compound 5n, 2-[1-(1H-Benzimidazole-2-yl)ethylidenehydrazono]-5-{[3-(4-chlorophenyl)-1-phenyl-1H-pyrazol-4-yl]methylene}-3-phenylthiazolidin-4-one]",9.52,
> 300,,"COc1ccc(-c2nn(-c3ccccc3)cc2C=C2SC(=NN=C(C)c3nc4ccccc4[nH]3)N(c3ccccc3)C2=O)cc1 [Compound 5o, 2-[1-(1H-Benzimidazole-2-yl)ethylidenehydrazono]-5-{[3-(4-methoxyphenyl)-1-phenyl-1H-pyrazol-4-yl]methylene}-3-phenylthiazolidin-4-one]",15.1,
,could not be dissolved,"COc1ccc(N2C(=O)C(=Cc3cn(-c4ccccc4)nc3-c3ccccc3)SC2=NN=C(C)c2nc3ccccc3[nH]2)cc1 [Compound 5s, 2-[1-(1H-Benzimidazole-2-yl)ethylidenehydrazono]-5-[(1,3-Diphenyl-1H-pyrazol-4-yl)methylene]-3-(4-methoxyphenyl)thiazolidin-4-one]",,
,could not be dissolved,"COc1ccc(N2C(=O)C(=Cc3cn(-c4ccccc4)nc3-c3ccc(Cl)cc3)SC2=NN=C(C)c2nc3ccccc3[nH]2)cc1 [Compound 5t, 2-[1-(1H-Benzimidazole-2-yl)ethylidenehydrazono]-5-{[3-(4-chlorophenyl)-1-phenyl-1H-pyrazol-4-yl]methylene}-3-(4-methoxyphenyl)thiazolidin-4-one]",,
,could not be dissolved,"COc1ccc(-c2nn(-c3ccccc3)cc2C=C2SC(=NN=C(C)c3nc4ccccc4[nH]3)N(c3ccc(OC)cc3)C2=O)cc1 [Compound 5u, 2-[1-(1H-Benzimidazole-2-yl)ethylidenehydrazono]-5-{[3-(4-methoxyphenyl)-1-phenyl-1H-pyrazol-4-yl]methylene}-3-(4-methoxyphenyl)thiazolidin-4-one]",,
215 to 217,,"COc1ccc(-c2nn(-c3ccccc3)cc2C=C2SC(=NN=C(C)c3nc4ccccc4[nH]3)N(C3CCCCC3)C2=O)cc1 [Compound 5x, 2-[1-(1H-Benzimidazole-2-yl)ethylidenehydrazono]-5-{[3-(4-methoxyphenyl)-1-phenyl-1H-pyrazol-4-yl]methylene}-3-cyclohexylthiazolidin-4-one]",8.74,"toxicity to RBCs (hemolysis), in words [4]: cause hemolysis to RBCs"
,,"CC(=NN=C1SC(=C2C(=O)Nc3ccccc32)C(=O)N1c1ccccc1)c1cc2ccccc2o1 [Compound 6a, 2-[1-(Benzofuran-2-yl)ethylidenehydrazono]-5-(2-oxoindolin-3-ylidene)-3-phenylthiazolidin-4-one]",11.2,"toxicity to RBCs (hemolysis), in words [4]: cause hemolysis to RBCs"
,,"CC(=NN=C1SC(=C2C(=O)Nc3ccccc32)C(=O)N1C1CCCCC1)c1nc2ccccc2[nH]1 [Compound 6h, 2-[1-(1H-Benzimidazole-2-yl)ethylidenehydrazono]-5-(2-oxoindolin-3-ylidene)-3-cyclohexylthiazolidin-4-one]",7.56,"toxicity to RBCs (hemolysis), in words [4]: cause hemolysis to RBCs"

# From article PMC5729604, “Dual inhibitors of hepatitis C virus and hepatocellular carcinoma: design, synthesis and docking studies” (Future Science OA, 2017)
